Measured values: a melting point compilation (Tetko et al.; mined from patent text by program, amines drawn as free bases though some values may be those of a salt)
Residues, ends and D or L forms follow the SMILES beside them. *: point of attachment. Tos = Cc1ccc(S(=O)(=O)*)cc1; Boc = CC(C)(C)OC(=O)*; OBn = c1ccc(CO*)cc1; Bn = c1ccc(C*)cc1; Cam = NC(=O)C*

Compound | melting point
OCC1OC(n2cnc3c(NC4CCCCC4)ncnc32)C(O)C1O (stereo not drawn) | 185 to 187 °C
O=C(O)CCCCCCCCCCNC(=O)C(CS)Cc1ccccc1 (stereo not drawn) | 104 to 105 °C
CCCCNC(=O)c1cnc2cccc(C)n2c1=O | 127 to 130 °C
Cc1ccnc(N2CCN(CCCC3CNc4c(ccc(C)c4-c4cc(C)c(O)c(C)c4)O3)CC2)c1 (stereo not drawn) | 110 °C
Cc1c(C(=O)O)ccc2c1C(Cl)C(Cl)CS2(=O)=O (stereo not drawn) | 236 to 244 °C
COc1ccc2c(c1)CCN1CCC(Nc3ccc(NC(C)=O)cc3)CC21 (stereo not drawn) | 219 to 221 °C
CC(=O)OC1CC2C=CC3C4CCC(C(C)CCCC(C)C)C4(C)CCC3C2(C)C(OC(C)=O)C1 (stereo not drawn) | 116 to 118 °C
CC1=C(Cc2ccc(NC(=O)OC(C)(C)C)cc2)C(=O)C2C=CC=CC2C1=O (stereo not drawn) | 148 to 149 °C
COc1ccc(S(=O)(=O)C(C)(Cc2cccnc2)C(=O)NO)cc1 (stereo not drawn) | 98 °C
Cn1c(=O)c2c(C(=O)O)nc(O)n2c2ccccc21 | > 300 °C
CCOC(=O)CCCn1cc(C(=O)O)c2nc3c(C)cccc3cc2c1=O | 186 to 188 °C
Cc1c(NC(=O)c2ccc(-c3ccc(F)cc3)cc2)ccc2cc(C(c3ccccc3)N3CCCC3)cnc12 (stereo not drawn) | 192 to 195 °C
O=C1CC[C@]2(C[C@H]3CC[C@@H]2C3)C(=O)N1 (racemic) | 154 to 156 °C
CC(C)(C)C(=O)CN1C(=O)C(NC(=O)Nc2cccc(C(=O)NS(C)(=O)=O)c2)CN(c2ccccc2)c2ccccc21 (stereo not drawn) | 229 to 233 °C
Cc1c(CCl)sc2cc(Br)ccc12 | 92 to 93 °C
CCc1cccc(CC)c1NC(=O)CN | 70 to 71 °C
COc1ccncc1-c1nc2c(N[C@H]3[C@@H](C(N)=O)[C@@H]4C=C[C@H]3C4)c(Br)cnc2[nH]1 | 160 °C
COC(=O)c1c(C)cc2cc(OC)c(OC)cc2c1-c1ccnc(Cl)c1 | 133 to 136 °C
CCCCCCCCCCCCCCCC(=O)Nc1nc(=O)n(C2OC(C)C(O)C2O)cc1F (stereo not drawn) | 93 to 95 °C
CC(C)(Cc1cc2ccccc2[nH]1)[N+](=O)[O-] | 102 to 103 °C
COc1ccc(C(=O)O)c2c1OC(C)(C)C2 | 147 to 149 °C
COc1ccc(N2CCN(CCn3c(=O)[nH]c4ccsc4c3=O)CC2)cc1 | 130 to 131 °C
COc1cc(C(C)C)c2c(c1)S(=O)(=O)N(COc1cc(C#N)nn1-c1ccc(Cl)cc1Cl)C2=O | 183 to 184 °C
Cc1ccc(C(=O)c2noc(CC(=O)O)n2)cc1 | 140 to 141 °C
O=C1N=Nc2ccncc21 | > 350 °C
Cc1nc(N2C(=O)N(CCc3ccc(F)cc3)CC2O)sc1C(=O)NCc1cccnc1 (stereo not drawn) | 182 to 184 °C
O=[N+]([O-])c1cccc(-c2csc(Nc3ccccc3C(F)(F)F)n2)c1 | 182 °C

Compound | melting point
OC1(C#Cc2ccc(OCCOc3ccccc3)cc2)CN2CCC1CC2 (stereo not drawn) | 207 to 208 °C
O=C(O)CCc1ccc(OCc2ccccc2)cc1OCc1ccccc1 | 125 to 127 °C
OC1CSC(Oc2ccc(-c3cccnc3)nc2Cl)C(O)C1O (stereo not drawn) | 180 °C
CCCN1CCc2[nH]c3ccc4sccc4c3c2C1 | 143 to 144 °C
CC(C)(C)OC(=O)C(C)(C)N1COC(CF)=C(c2ccccc2)C1=O | 80.5 to 82.5 °C
CC1Cc2ccc(Br)cc2C(c2ccc([N+](=O)[O-])cc2)=NN1C(=O)C(F)(F)F (stereo not drawn) | 193 to 196 °C
CC1(C)CCC(C)(C)c2cc3cc(-c4c[nH]c(C(=O)O)c4)ccc3cc21 | 234 to 238 °C
COc1ccc(C=CC=Cc2ccccc2)cc1 | 160 to 162 °C
OC(Cn1cncn1)(c1ccc(F)cc1)C1(Cl)CC1 (stereo not drawn) | 121 °C
Cc1ccc(N2CCN(C)CC2)c2c1CC[C@@H](NC(=O)c1ccc(Cl)cc1)C2 | 210 to 212 °C
COc1ccc(-c2ccc3c(c2)C=C(C(=O)Nc2ccc(CN(C)C4CCC5(CC4)OCCO5)cc2)CCS3(=O)=O)cc1 | 222 to 228 °C
Cc1nc2nc(NCCN3CCC(Nc4nc5ccccc5n4Cc4ccc(F)cc4)CC3)ccc2[nH]1 | 202 °C
Cc1oc(-c2ccccc2)nc1CCCCCOC(C)(C)C(=O)O | 66 to 68 °C
CCCOc1ncc(NC(=O)N(C)C)cc1-c1nc2c(CCC)nn(C)c2c(=O)[nH]1 | 219 to 220 °C
C=CC(=O)Nc1ccc2ncnc(Nc3ccc(Oc4ccccc4)cc3)c2c1 | 185 to 191 °C
CC(C)(C)c1ccc(CSc2nc3cnccc3[nH]2)cc1 | 207 to 208 °C
CCOC(=O)/C=C/c1oc2cccc(O)c2c1C | 180 to 182 °C
O=C1c2ccccc2C(=O)N1OCCc1cn(C(c2ccccc2)(c2ccccc2)c2ccccc2)cn1 | 177 °C
O=C(O)CCCc1nc(NCc2ccc3c(c2)OCO3)c2cc(Cl)sc2n1 | 112 °C
c1ccc(-c2nn3c(c2-c2cncc4cccnc24)CCC3)nc1 | 180 to 184 °C
CCOC(=O)C1=C(C)NC(N)(c2nc(-c3cccc(C(F)(F)F)c3)cs2)N=C1 (stereo not drawn) | 227 to 229 °C
N#CC1CCSc2[nH]c3ccccc3c21 (stereo not drawn) | 125 to 126 °C
Cc1nc2cnccc2n1-c1ccc(Cn2nnc3ccccc32)cc1 | 126 to 127 °C
C=C(C)c1cc(Br)c(Oc2nc(C)nc3c2nnn3C(CCC)CCC)c(OC)c1 | 110 to 115 °C
O=C(O)C1(c2ccccc2)CCN(CCC(c2ccccc2)(c2ccccc2)c2ccccn2)CC1 | 270 to 275 °C
Nc1ccn(C2CC(O)C(CO)O2)c(=O)c1F (stereo not drawn) | 161 to 163 °C
CNCC(O)c1cc(C(F)(F)F)nc2c(C(F)(F)F)cccc12 (stereo not drawn) | 158 °C

Continued, values first:

melting point | Compound
234 to 235 °C | COc1ccc(-c2cc(-c3ccccc3)[nH]c2C(=O)Nc2ccc(C(=O)NO)cc2)cc1
170 to 173 °C | O=C(NC1CCCCC1)Oc1ccc(N=C=S)cc1
193 to 194 °C | O=C1c2cccc(Oc3ccc(Cl)cc3)c2C(=O)N1Cc1cccnc1
186 °C | Cn1cnc(COc2nc3c(-c4ccccc4F)nncn3c2-c2ccccc2)n1
70 to 71 °C | CCOC(=O)C=Cc1ccc(O)cc1
228 to 230 °C | O=C(O)c1cn(-c2ccncc2F)c2nc(Cl)c(F)cc2c1=O
115 to 116 °C | CCOC(=O)NC1=NCC(c2ccc(OCC)cc2)N1C (stereo not drawn)
124 to 126 °C | COc1ccc(N2CCCn3c2nc2c(Cl)ccc(C(OCC(F)F)C4CC4)c23)c(C)n1 (stereo not drawn)
122 to 123 °C | CN1C(=O)NC(=O)C1(C)O (stereo not drawn)
164 to 169 °C | CN1CCC(C(O)(c2ccc(F)cc2)c2ccc3ccccc3c2)CC1 (stereo not drawn)
220 to 228 °C | Cc1ccc(O)c(C(CCCC(c2cc(C)ccc2O)c2cc(C)ccc2O)c2cc(C)ccc2O)c1
113 to 114 °C | O=C(NCCCCCCOC(=O)N1CCC2(CCCC2)CC1)OC1CCN(C(=O)Oc2ccc([N+](=O)[O-])cc2)CC1
262 °C | O=C(O)c1c(C(F)(F)F)nc2ccccc2c1O
95 to 97 °C | Cc1cc(Oc2cc(F)ccc2[N+](=O)[O-])n[nH]1
187 to 189 °C | O=S(=O)(c1ccc2nccnc2c1)c1cccc2cnccc12
197 to 198 °C | NS(=O)(=O)c1ccc2c(c1)C(=O)CCC2
154 to 155 °C | COc1cc(COc2cc(/C=C/c3cscn3)n(-c3ccccc3)n2)ccc1OCc1nc(-c2ccco2)oc1C
149 to 150 °C | CCCCCCCCCNC(=O)Nc1ccccc1C(=O)NC1CCN(C(c2ccccc2)c2ccccc2)CC1
201 to 203 °C | CON(CCCCn1c(C)nc2c(N)nc3ccccc3c21)S(C)(=O)=O
42 to 45 °C | CCCOc1nc2ccsc2c(=O)n1CCC
101 to 102 °C | COc1ccccc1NS(=O)(=O)c1ccc(F)cc1
114 to 116 °C | CC(C)CC(NC(=O)C(Cc1ccc(OCc2ccccc2)cc1)NC(=O)OC(C)(C)C)C(=O)NCC(=O)OCc1ccccc1 (stereo not drawn) (Boc-Tyr(Bn)-Leu-Gly-OBn; configuration not given here)

melting point | Compound
175 to 176 °C | CN(C)C(=O)COc1ccc2c(c1)C[C@@H](NC[C@H](O)c1ccc(O)c(CO)c1)CC2
192 to 194 °C | COc1nc(C#N)c(C#N)n1C
152 °C | CCOC(=O)C(CC=C(C)C=CC1=C(C)CCCC1(C)C)C(C)=O (stereo not drawn)
159 to 160 °C | CN(C)C(=O)c1ccc([N+](=O)[O-])cc1S(N)(=O)=O
176 to 178 °C | O=C1N(Cc2ncccc2Cl)c2ccccc2C12COc1cc3c(cc12)OCCO3 (stereo not drawn)
154 to 155 °C | N#CCCNC(=O)c1cccc(-c2ccc3c(c2)C(c2ccc(Cl)cc2Cl)CCO3)c1 (stereo not drawn)
70 to 71 °C | COC1=C(Cc2ccc3ccccc3c2)C(=O)CC1
150 to 151 °C | CSC(Nc1cccc(CNC(=O)OC(C)(C)C)c1)=C(C#N)C#N
195 to 196 °C | Cc1ccc(S(=O)(=O)N2CCC[C@H]2C(=O)N[C@@H](Cc2ccc(OCC(N)=O)cc2)C(=O)O)cc1 (Tos-Pro-Tyr(Cam)-OH)
75 to 77 °C | CC(C)(C)C(=O)OCOC(=O)C1CCc2c(c3ccccc3n2C(=O)c2ccccc2)C1 (stereo not drawn)
69.5 to 71.5 °C | Brc1cccc2c(-c3ccccc3)coc12
> 230 °C | CCc1nn2c(N)c3c(nc2c1S(=O)(=O)c1ccccc1)CCC3
55 to 57 °C | CC(O)COC1CCNCC1 (stereo not drawn)
114 to 116 °C | CCCc1nn(C)c2c(-c3ccc(SC)cc3)nc(-c3ccc(F)cc3)nc12
178 to 180 °C | COc1ccc(OC)c2c1CC(O)(C(=O)O)CC21SCCS1 (stereo not drawn)
> 230 °C | O=C1Nc2ccccc2C12COc1cc3c(cc12)CCCC3 (stereo not drawn)
54 to 56 °C | S=C=NCCC1CC(c2ccccc2)=NO1 (stereo not drawn)
148 to 149 °C | O=C1CCCC(=O)C1c1ccccc1Cl
93 to 95 °C | CC(Br)c1ccc2c(=O)c3ccccc3ccc2c1 (stereo not drawn)
131 to 134 °C | COc1ccc(C2Sc3cc(Cc4ccc(C)s4)ccc3N(CCN(C)C)C(=O)C2OC(C)=O)cc1 (stereo not drawn)
208 to 210 °C | CNC(=O)c1ccc(=O)n(CCNC(=O)c2cccnc2)c1
127 to 130 °C | COc1cccc(CNC(=O)c2nc3cccc(OCCN4CCC(C(=O)O)CC4)c3c(=O)[nH]2)c1
